Experimental data published in PubChem BioAssay AID1508591.

details: rat; liver microsomes; pH 7.4; 15.0 min; 1.0 µM

half-life [min] | Structure (SMILES)
> 30 | CCN1CCN(c2ccc(Nc3ccc(-c4ccc(C(N)=O)cc4)n4ncnc34)cc2)CC1
3.67 | Cc1csc2nc(-c3cccc(NC(=O)c4cccc(F)c4)c3)cn12
15 | CC1CCCCN1c1ncnc(N)c1[N+](=O)[O-] (stereo not given)
1.43 | Cc1cccc(CS(=O)(=O)c2ncc(Cl)c(C(=O)Nc3nc4ccc(F)cc4s3)n2)c1
> 30 | CN(C)C(=O)c1cccc(-c2csc(N3CCC(C(N)=O)CC3)n2)c1
23.1 | CCCOC(c1cc2nccc(C(=O)O)c2[nH]1)c1ccccc1Cl (stereo not given)
5.3 | CN(C)c1ccc2cc(C(=O)N[C@@H](CCCN=C(N)CCl)C(=O)NCc3ccccc3)ccc2c1
6.88 | CCc1nc2c(sc3nc4c(cc32)COC(C)(C)C4)c(=O)n1Cc1ccco1
2.09 | Cn1ccc2cc(-c3csc(N4CCC(C(N)=O)CC4)n3)ccc21
> 30 | NC1CCN(c2nc(-c3ccc(Br)cc3)cs2)CC1
6.5 | Cc1ccc(NS(=O)(=O)c2ccc(C(=O)Nc3nc(-c4ccccc4)cs3)cc2)cc1
> 30 | CCCCCn1c(=O)[nH]c2cc(C(=O)NCCCN3CCCCC3)ccc2c1=O
2.36 | COc1ccc(NC2CCCN(C(=O)CCc3ccccc3F)C2)cc1 (stereo not given)
1.8 | CCOc1cc(F)c(CCNC(=O)c2cc3sccc3n2Cc2ccccc2)cc1OCC
2.13 | Nc1ccccc1OCCn1c(CCNC(=O)C2CCCCC2)nc2ccccc21
9.7 | Cc1ccccc1C(=O)N1CCc2cc(-c3cccc(NC(=O)Cc4ccc5c(c4)OCO5)c3)ccc21
> 30 | O=C(NCCN1CCOCC1)C1CC(=O)N(c2n[nH]c3cc(Br)ccc23)C1 (stereo not given)
> 30 | CC(=O)c1c(C)c2cnc(Nc3ccc(N4CCNCC4)cn3)nc2n(C2CCCC2)c1=O
12 | Cc1cnc(-c2ccccc2C2COC2)nc1NCc1ccc(-c2cccnc2)cc1
1.26 | Cc1sc2c(c1C)C(c1ccc(Cl)cc1)=N[C@@H](CC(=O)Nc1ccc(OCCOCCOCCOCCNc3cccc4c3C(=O)N(C3CCC(=O)NC3=O)C4=O)cc1)c1nnc(C)n1-2 (stereo not given in full)
1.69 | COc1ccccc1N1CCN(C2CCCCC2NS(=O)(=O)c2ccccc2)CC1 (stereo not given)
> 30 | O=C(Cc1ccc(Cl)c(Cl)c1)Nc1ccc(S(=O)(=O)Nc2ccon2)cc1
> 30 | CC[C@H]1CN2CCc3cc(OC)c(OC)cc3[C@@H]2C[C@@H]1C[C@H]1NCCc2cc(OC)c(OC)cc21

The next lines start with the molecule.

Structure (SMILES) | half-life [min]
Cc1ccc(S(=O)(=O)Nc2cnccc2C(=O)Nc2nc(-c3ccccc3F)cs2)cc1 | 9.9
Cc1ccc(C(=O)Nc2ccc3oc(-c4cccnc4)nc3c2)cc1[N+](=O)[O-] | 13.2
Cc1ccc2cccc(NC(=O)c3ccc(OC(C)C)cc3)c2n1 | 17.9
COc1nccc(-c2nc(Nc3ccc(F)c(F)c3)c3ccccc3n2)c1Cl | > 30
Fc1cccc(CNc2nc(-c3ccccc3C(F)(F)F)nc3ccccc23)c1 | 2.55
Cc1sc(NC(=O)Cc2ccc3c(c2)OCO3)nc1-c1ccc2c(c1)CCN2C(=O)c1ccccc1C(F)(F)F | > 30
CCOC(=O)c1ccc(N2C(=O)c3n[nH]c(-c4cccs4)c3C2c2ccc(Cl)cc2Cl)cc1 (stereo not given) | 20.1
Fc1cc(Nc2nc(-c3ccncc3)nc3ccccc23)ccc1-c1ccnc(C(F)(F)F)c1 | 8.6
Cc1cccc(C)c1NC(=O)c1nc(SC(C)C)ncc1Cl | 1.38
Cc1nc([N+](=O)[O-])cn1-c1ccc([N+](=O)[O-])cc1 | > 30
Cc1ccc(-c2csc(NC(=O)c3ccncc3NS(=O)(=O)c3ccc(C)cc3)n2)cc1 | 7.3
CSc1nn(Cc2cccc(C)c2)c(N)c1S(=O)(=O)c1ccccc1 | 1.2
NC(=O)C1CCN(c2nc(-c3cccc(F)c3)cs2)CC1 | 1.95
Oc1ccc(CN2CC(CNc3ccccc3)C3(C2)CN(c2ccccc2)C3)cc1 (stereo not given) | 3.01
CCc1ccc2ncc(C(=O)c3ccc(C)c(C)c3)c(N3CCC(C(N)=O)CC3)c2c1 | 1.47
O=C(Cc1nc2ccc(Cl)cc2[nH]1)Nc1ccc(S(=O)(=O)Nc2nccs2)cc1 | > 30
c1ccc(-c2cn[nH]c2)cc1 | 13.1
